Patent publication US5863936A, “Telomerase inhibitors” (Geron Corporation, priority 1995, dated 1999)
“And” between values parts separate entries of the source, which are not always exact repeats. Equal values may be shown once. Read-outs that look alike come from different tables or passages of the source.

Target: T1, telomerase (Homo sapiens, UniProt O14746)
T1 construct: cells, tissues, or preferably a cellular extract or other preparation containing telomerase; endogenous in cells
Assay: Telomerase inhibition (IC50) with cellular extract or other preparation containing telomerase
Format: biochemical
Text: One method used to identify compounds of the invention that inhibit telomerase activity involves placing cells, tissues, or preferably a cellular extract or other preparation containing telomerase in contact with several known concentrations of a test compound in a buffer compatible with telomerase activity. […] Other methods for determining the inhibitory concentration of a compound of the invention against telomerase can be employed as will be apparent to those of skill in the art based on the disclosure herein.
With the above-described methods, IC50 values for several of the compounds of the present invention were determined. The values reported in Table 1 below are only approximate values; more exact IC50 values can be obtained by repetitive testing.

[1] = approximate values, read-out: IC50

T1 sequence (O14746 whole entry): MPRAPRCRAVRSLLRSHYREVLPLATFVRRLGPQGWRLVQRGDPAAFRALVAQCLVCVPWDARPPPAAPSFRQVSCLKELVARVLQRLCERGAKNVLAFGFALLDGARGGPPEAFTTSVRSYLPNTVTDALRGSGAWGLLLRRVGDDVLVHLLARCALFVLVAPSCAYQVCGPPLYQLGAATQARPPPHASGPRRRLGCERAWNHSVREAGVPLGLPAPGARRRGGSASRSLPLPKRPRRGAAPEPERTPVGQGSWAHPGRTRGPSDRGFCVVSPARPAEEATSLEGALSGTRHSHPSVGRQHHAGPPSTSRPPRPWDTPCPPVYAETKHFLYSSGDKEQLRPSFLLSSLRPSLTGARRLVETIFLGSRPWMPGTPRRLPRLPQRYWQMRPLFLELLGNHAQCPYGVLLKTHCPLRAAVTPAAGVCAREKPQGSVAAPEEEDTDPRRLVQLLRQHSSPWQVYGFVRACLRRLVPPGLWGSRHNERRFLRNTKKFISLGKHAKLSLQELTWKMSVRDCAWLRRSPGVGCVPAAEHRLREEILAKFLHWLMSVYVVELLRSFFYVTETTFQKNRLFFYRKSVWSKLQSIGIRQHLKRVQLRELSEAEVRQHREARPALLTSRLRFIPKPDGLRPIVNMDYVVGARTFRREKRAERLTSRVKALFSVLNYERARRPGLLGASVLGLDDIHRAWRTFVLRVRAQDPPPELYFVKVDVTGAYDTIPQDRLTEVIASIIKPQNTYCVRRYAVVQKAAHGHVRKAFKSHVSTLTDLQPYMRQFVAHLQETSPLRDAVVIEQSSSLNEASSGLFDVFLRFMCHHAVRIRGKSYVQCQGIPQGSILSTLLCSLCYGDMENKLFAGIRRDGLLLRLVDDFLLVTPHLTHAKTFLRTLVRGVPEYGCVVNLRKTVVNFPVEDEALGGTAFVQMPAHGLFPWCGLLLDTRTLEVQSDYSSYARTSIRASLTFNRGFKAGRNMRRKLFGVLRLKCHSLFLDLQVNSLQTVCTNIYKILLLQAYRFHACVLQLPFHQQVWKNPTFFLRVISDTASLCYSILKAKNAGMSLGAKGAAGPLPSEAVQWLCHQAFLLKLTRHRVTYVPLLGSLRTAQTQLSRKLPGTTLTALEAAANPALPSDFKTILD
T1 sequence (O60832 whole entry partner): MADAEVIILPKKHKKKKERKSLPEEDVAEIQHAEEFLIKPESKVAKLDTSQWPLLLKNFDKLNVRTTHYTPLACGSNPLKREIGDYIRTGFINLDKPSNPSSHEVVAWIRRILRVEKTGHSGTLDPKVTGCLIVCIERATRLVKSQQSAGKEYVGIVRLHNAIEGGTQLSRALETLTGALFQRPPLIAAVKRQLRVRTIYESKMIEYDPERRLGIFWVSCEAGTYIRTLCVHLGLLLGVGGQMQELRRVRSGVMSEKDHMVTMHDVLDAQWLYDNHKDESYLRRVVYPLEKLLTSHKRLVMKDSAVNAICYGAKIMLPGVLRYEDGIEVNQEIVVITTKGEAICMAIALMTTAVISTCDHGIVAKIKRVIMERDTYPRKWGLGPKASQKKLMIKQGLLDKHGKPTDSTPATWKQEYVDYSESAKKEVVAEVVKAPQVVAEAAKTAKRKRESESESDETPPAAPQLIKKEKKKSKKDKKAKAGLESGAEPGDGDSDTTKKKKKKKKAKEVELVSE
T1 sequence (Q9NPE3 whole entry partner): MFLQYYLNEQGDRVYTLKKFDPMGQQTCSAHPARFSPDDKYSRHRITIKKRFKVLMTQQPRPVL
T1 sequence (Q9NX24 whole entry partner): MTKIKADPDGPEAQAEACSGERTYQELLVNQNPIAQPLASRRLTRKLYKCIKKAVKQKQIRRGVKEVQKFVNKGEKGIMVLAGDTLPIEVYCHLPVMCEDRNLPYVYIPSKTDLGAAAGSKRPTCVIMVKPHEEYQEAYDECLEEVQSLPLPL
T1 sequence (Q9NY12 whole entry partner): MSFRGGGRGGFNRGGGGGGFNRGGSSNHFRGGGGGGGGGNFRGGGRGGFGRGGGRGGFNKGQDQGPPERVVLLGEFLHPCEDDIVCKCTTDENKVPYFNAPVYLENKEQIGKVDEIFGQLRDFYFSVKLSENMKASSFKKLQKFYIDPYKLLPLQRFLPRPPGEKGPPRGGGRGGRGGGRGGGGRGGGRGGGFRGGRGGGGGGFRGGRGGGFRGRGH

| Compound | IC50 [1] | anti-telomerase activity (in words) | IC50 (IC50, approximate values) |
| --- | --- | --- | --- |
| O=C(NNC(=S)Nc1cc(Cl)c(Cl)cc1Cl)c1sc2cc(-c3ccccc3)ccc2c1Cl [Compound XXIV] | 8 µM |  |  |
| O=C(NNC(=S)Nc1cc(Cl)ccc1Cl)c1sc2cc(-c3ccccc3)ccc2c1Cl [Compound XXVII] | 6 µM |  |  |
| O=C(NNC(=S)Nc1cc(Cl)c(Cl)c(Cl)c1Cl)c1cc2cccc(F)c2s1 [IX] | 5 µM and ≤ 5 µM |  |  |
| O=C(NNC(=S)Nc1ccc(Sc2ccc([N+](=O)[O-])cc2)cc1)c1cc2c(F)cccc2s1 [Compound XVI] | 6 µM |  |  |
| O=C(NNC(=S)Nc1ccc(Cl)cc1)c1sc2ccc(Cl)c(Cl)c2c1Cl [Compound XLI] | 8 µM |  |  |
| O=C(NNC(=S)Nc1c(Cl)cc(Cl)cc1Cl)c1sc2cc(-c3ccccc3)ccc2c1Cl [Compound XXIX] | 7 µM |  |  |
| O=C(NNC(=S)Nc1cc(Br)ccc1Br)c1sc2ccc(Cl)c(Cl)c2c1Cl [Compound XXXV] | 6 µM |  |  |
| COc1ccc2c(Cl)c(C(=O)NNC(=S)Nc3ccc(Cl)c(Cl)c3Cl)sc2c1 [Compound XXII] | 8 µM | useful telomerase-inhibiting properties |  |
| O=C(NNC(=S)Nc1cc(Cl)ccc1Cl)c1cc2ccccc2s1 [Compound VII] | 10 µM |  |  |
| COc1ccc2c(Cl)c(C(=O)NNC(=S)Nc3cc(Cl)c(Cl)c(Cl)c3Cl)sc2c1Cl [Compound XVIII] | 15 µM |  |  |
| O=C(NNC(=S)Nc1cc(Cl)c(Cl)c(Cl)c1Cl)c1sc2ccc(Cl)c(Cl)c2c1Cl [Compound XXX] | 5 µM and ≤ 5 µM |  |  |
| Cc1cccc(NC(=S)Nc2ccc3sc(C(=O)NNC(=S)Nc4cc(C(F)(F)F)cc(C(F)(F)F)c4)cc3c2)c1 [Compound IV] | 23.4 µM | useful telomerase-inhibiting properties |  |
| O=C(NNC(=S)Nc1ccc2ccccc2c1)c1sc2ccc(Cl)c(Cl)c2c1Cl [Compound XXXVIII] | 5 µM and ≤ 5 µM |  |  |
| Cc1ccc(Sc2ccccc2NC(=S)NNC(=O)c2sc3ccc(Cl)c(Cl)c3c2Cl)cc1 [Compound XXXVII] | 7 µM |  |  |
| O=C(NNC(=S)Nc1cccc(Cl)c1Cl)c1sc2cc(-c3ccccc3)ccc2c1Cl [Compound XXVI] | 6 µM |  |  |
| O=C(NNC(=S)Nc1cc(Cl)c(Cl)cc1Cl)c1sc2ccc(Cl)c(Cl)c2c1Cl [Compound XXXIX] | 5 µM and ≤ 5 µM |  |  |
| O=C(NNC(=S)Nc1cc(Cl)c(Cl)cc1Cl)c1cc2cccc(F)c2s1 [VIII] |  |  | 7 µM |
| O=C(NNC(=S)Nc1cc(Br)ccc1Br)c1cc2c(Cl)cccc2s1 [Compound XIII] | 9 µM |  |  |
| O=C(NNC(=S)Nc1cc(Br)ccc1Br)c1sc2cc(-c3ccccc3)ccc2c1Cl [Compound XXVIII] | 9 µM |  |  |

Further lines, with some results ahead:

| IC50 [1] | anti-telomerase activity (in words) | Compound | IC50 (IC50, approximate values) |
| --- | --- | --- | --- |
| 9 µM |  | COc1ccc2c(Cl)c(C(=O)NNC(=S)Nc3cc(Cl)c(Cl)cc3Cl)sc2c1Cl [Compound XVII] |  |
| 5 µM and ≤ 5 µM |  | O=C(NNC(=S)Nc1cccc(Cl)c1Cl)c1sc2ccc(Cl)c(Cl)c2c1Cl [Compound XXXI] |  |
| 12 µM | useful telomerase-inhibiting properties | Cc1ccc(Sc2ccccc2NC(=S)NNC(=O)c2cc3cc(NC(=S)Nc4ccccc4Sc4ccc(C)cc4)ccc3s2)cc1 [Compound III] |  |
| 6 µM |  | O=C(NNC(=S)Nc1ccc(Cl)c(Cl)c1Cl)c1sc2ccc(Cl)c(Cl)c2c1Cl [Compound XXXIV] |  |
| 7 µM |  | O=C(NNC(=S)Nc1cc(Cl)ccc1Cl)c1sc2ccc(Cl)c(Cl)c2c1Cl [Compound XXXIII] |  |
| 8 µM | useful anti-telomerase properties | O=C(NNC(=S)Nc1cc(Cl)c(Cl)c(Cl)c1Cl)c1sc2ccccc2c1Cl [Compound XIX] |  |
| 9 µM | useful telomerase-inhibiting properties | COc1ccc2c(Cl)c(C(=O)NNC(=S)Nc3cc(Cl)c(Cl)cc3Cl)sc2c1 [Compound XX] |  |
| 8 µM |  | O=C(NNC(=S)Nc1cc(C(F)(F)F)cc(C(F)(F)F)c1)c1sc2ccc(Cl)c(Cl)c2c1Cl [Compound XXXVI] |  |
| 10 µM |  | O=C(NNC(=S)Nc1cc(Cl)c(Cl)cc1Cl)c1cc2c(Cl)cccc2s1 [Compound XI] |  |
| 10 µM |  | O=C(NNC(=S)Nc1cc(Cl)c(Cl)c(Cl)c1Cl)c1sc2cc(-c3ccccc3)ccc2c1Cl [Compound XXV] |  |
| 6.4 µM | useful telomerase-inhibiting properties | CSc1ccc(NC(=S)NNC(=O)c2cc3cc(NC(=S)Nc4cccc(C)c4)ccc3s2)cc1 [Compound VI] |  |
| 9 µM |  | O=C(NNC(=S)Nc1ccc(Cl)c(Cl)c1Cl)c1cc2c(Cl)cccc2s1 [Compound XIV] |  |
| 9.7 µM | useful telomerase-inhibiting properties | Cc1ccc(Sc2ccccc2NC(=S)NNC(=O)c2cc3cc(NC(=S)Nc4cccc(C)c4)ccc3s2)cc1 [Compound V] |  |
| 7 µM |  | O=C(NNC(=S)Nc1ccc(Cl)cc1Cl)c1sc2ccc(Cl)c(Cl)c2c1Cl [Compound XXXII] |  |
| 5 µM | useful telomerase-inhibiting properties | COc1ccc2c(Cl)c(C(=O)NNC(=S)Nc3cc(Cl)c(Cl)c(Cl)c3Cl)sc2c1 [Compound XXI] |  |
| 14 µM |  | O=C(NNC(=S)Nc1c(Cl)cc(Cl)cc1Cl)c1sc2ccc(Cl)c(Cl)c2c1Cl [Compound XL] |  |
| 6 µM | good anti-telomerase activity | Cc1ccc(NC(=S)Nc2ccc3sc(C(=O)NNC(=S)Nc4cc(Cl)ccc4Cl)cc3c2)cc1 [Compound II] |  |
| 9 µM |  | Cc1ccc(Sc2ccccc2NC(=S)NNC(=O)c2cc3c(Cl)cccc3s2)cc1 [Compound XV] |  |
| 6 µM |  | Cc1ccc(Sc2ccccc2NC(=S)NNC(=O)c2cc3cccc(F)c3s2)cc1 [Compound X] |  |
| 7 µM |  | O=C(NNC(=S)Nc1cc(Cl)c(Cl)c(Cl)c1Cl)c1cc2c(Cl)cccc2s1 [Compound XII] |  |
| 10 µM |  | Cc1ccc2c(Cl)c(C(=O)NNC(=S)Nc3cccc(Cl)c3Cl)sc2c1 [Compound XXIII] |  |
